From ChEMBL document CHEMBL1201862, “PubChem BioAssay data set” (2004)
The source made the active and inactive calls.

How the values were obtained:
[1] = HEp-2 cell cytotoxicity, dose response, cytotoxicity control for RSV inhibitor project, HTS (AID 2410); assay type: functional; settings: human respiratory syncytial virus
cells [2] = assay: cells
[3] = biological target: DNA dC->dU-editing enzyme APOBEC-3A (Homo sapiens, UniProt P31941); assay: APOBEC3A DNA deaminase inhibitors, dose response, biochemical (AID 504722); assay type: functional
[4] = biological target: DNA dC->dU-editing enzyme APOBEC-3G (Homo sapiens, UniProt Q9HC16); assay: Dose Response confirmation of small molecule APOBEC3G DNA Deaminase Inhibitors via a fluorescence-based single-stranded DNA deaminase assay. [Related pubchem assays (depositor defined):AID493012, AID493028]; assay type: functional
[5] = biological target: T1, Tyrosine-protein phosphatase non-receptor type 7 (Homo sapiens, UniProt P35236); assay type: functional
T1 sequence (P35236 whole entry): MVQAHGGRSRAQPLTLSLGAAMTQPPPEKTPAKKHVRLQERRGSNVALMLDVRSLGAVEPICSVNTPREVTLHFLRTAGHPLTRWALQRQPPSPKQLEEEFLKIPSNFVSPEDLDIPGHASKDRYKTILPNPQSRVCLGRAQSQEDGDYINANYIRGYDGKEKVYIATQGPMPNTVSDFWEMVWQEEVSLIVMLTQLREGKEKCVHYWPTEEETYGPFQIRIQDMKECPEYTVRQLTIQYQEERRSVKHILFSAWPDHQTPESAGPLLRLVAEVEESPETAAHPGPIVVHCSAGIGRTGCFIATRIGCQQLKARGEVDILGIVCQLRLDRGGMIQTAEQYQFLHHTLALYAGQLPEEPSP

[6] = biological target: Glyceraldehyde-3-phosphate dehydrogenase (Homo sapiens, UniProt P04406)
[7] = biological target: T2, Dual specificity protein phosphatase 6 (Rattus norvegicus, UniProt Q64346)
T2 sequence (Q64346 whole entry): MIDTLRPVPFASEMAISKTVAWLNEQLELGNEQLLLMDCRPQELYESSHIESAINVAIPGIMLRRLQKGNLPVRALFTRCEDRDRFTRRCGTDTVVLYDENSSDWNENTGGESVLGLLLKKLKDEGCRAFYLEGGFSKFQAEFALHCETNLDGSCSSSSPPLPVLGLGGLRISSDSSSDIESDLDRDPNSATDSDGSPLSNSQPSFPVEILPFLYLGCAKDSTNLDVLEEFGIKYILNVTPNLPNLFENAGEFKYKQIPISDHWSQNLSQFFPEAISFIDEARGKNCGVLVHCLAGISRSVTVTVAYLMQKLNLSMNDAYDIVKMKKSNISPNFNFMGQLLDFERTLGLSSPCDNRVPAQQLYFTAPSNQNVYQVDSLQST

[8] = biological target: T2, Dual specificity protein phosphatase 6; assay type: functional
[9] = A cytotoxicity screen of small molecule inhibitors of the PhoP region in Salmonella typhi identified in the primary screen. [Related pubchem assays: 1850, 1864, 1985 ]; assay type: functional
[10] = biological target: Melanin-concentrating hormone receptor 1 (Homo sapiens, UniProt Q99705); assay: Fluorescence-based counterscreen for antagonists of the G-protein coupled receptor 7 (GPR7): cell-based high throughput dose response assay to identify antagonists of the melanin-concentrating hormone receptor 1 (MCHR1).; assay type: functional
[11] = biological target: Luciferin 4-monooxygenase (Photinus pyralis, UniProt P08659); assay: Counter Screen for Luciferase-based Assay Positives. [Related pubchem assays: 620, 618, 411 ]
HT-1080 = assay: cytotoxicity in HT1080 fibrosarcoma cells, cell-based, fluorescence readout (AID 620); assay type: functional; settings: Homo sapiens
Troponin, cardiac muscle = Troponin, cardiac muscle (Homo sapiens, UniProt P19429+P45379+P63316); assay: Fluorescence-based biochemical high throughput dose response assay for activators of the calcium sensitivity of cardiac Regulated Thin Filaments (RTF). [Related pubchem assays (depositor defined):AID493008, AID493018, AID504382, AID504383]; assay type: protein-complex assay
Protein skinhead-1 = biological target: T3, Protein skinhead-1 (Caenorhabditis elegans, UniProt P34707); assay type: functional
T3 sequence (P34707 whole entry): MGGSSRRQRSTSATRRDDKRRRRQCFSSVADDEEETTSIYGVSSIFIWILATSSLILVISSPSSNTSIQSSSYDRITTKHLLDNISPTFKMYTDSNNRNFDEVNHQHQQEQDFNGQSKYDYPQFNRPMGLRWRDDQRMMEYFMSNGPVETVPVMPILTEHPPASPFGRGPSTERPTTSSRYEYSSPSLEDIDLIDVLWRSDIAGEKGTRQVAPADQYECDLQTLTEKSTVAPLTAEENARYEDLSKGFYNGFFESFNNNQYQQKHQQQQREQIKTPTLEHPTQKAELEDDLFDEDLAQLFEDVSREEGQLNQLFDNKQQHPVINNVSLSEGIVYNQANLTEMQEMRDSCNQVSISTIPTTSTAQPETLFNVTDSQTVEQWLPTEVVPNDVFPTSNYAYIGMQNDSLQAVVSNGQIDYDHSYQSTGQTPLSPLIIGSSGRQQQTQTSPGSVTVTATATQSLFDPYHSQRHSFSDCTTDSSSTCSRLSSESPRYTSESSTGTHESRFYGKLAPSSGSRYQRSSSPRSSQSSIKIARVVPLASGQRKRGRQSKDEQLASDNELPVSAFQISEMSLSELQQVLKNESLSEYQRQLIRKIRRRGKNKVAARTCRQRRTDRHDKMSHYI

[12] = biological target: Voltage-dependent T-type calcium channel subunit alpha-1H (Homo sapiens, UniProt O95180); assay type: functional;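 also: channel activity triggered by adding a high calcium stimulation buffer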
[13] = inhibitors of firefly luciferase expression or activity, dose response, H4 neuroglioma cells, luminescence (AID 1990); assay type: functional, cell-based
[14] = Luminescence Cell-Based Dose Response HTS to Identify Inhibitors of 5'UTR Stem-Loop Driven Prion Protein mRNA Translation in H4 Neuroglioblastoma Cells. [Related pubchem assays: 1827 (Project Summary), 1813 (Primary HTS)]; assay type: functional
[15] = inhibitors of SNCA 5'UTR-driven reporter translation, confirmation, H4 neuroglioma cells, luminescence (AID 1988); assay type: functional, cell-based
[16] = luciferase reporter signal reduction – luminescence, H4-C neuroglioblastoma cells, dose response (AID 2458); assay type: functional, cell-based;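 also: H4 neuroglioblastoma cells stably carrying a luciferase reporter gene fusion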
BJ [17] = assay: cytotoxicity toward BJ-TERT fibroblasts, dose response, cell-based, RAS-independent, luminescence (AID 1933); assay type: functional; settings: Homo sapiens
cells [18] = assay type: functional, cell-based
BJ [19] = assay: cells; assay type: functional, cell-based; settings: Homo sapiens
BJ [20] = assay: cytotoxicity toward BJ-TERT-LT-ST fibroblasts, dose response, cell-based, RAS-independent, luminescence (AID 1935); assay type: functional; settings: Homo sapiens;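 also: BJ fibroblasts immortalized with TERT plus LT and ST oncogenes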
[21] = cytotoxicity toward DRD oncogenic fibroblasts, dose response, cell-based, non-viral oncogenic, luminescence (AID 1934); assay type: functional; settings: Homo sapiens
[22] = inhibitors of SNCA 5'UTR-driven translation, confirmation, luminescence, H4 neuroglioblastoma cells, dose confirmation (AID 2454); assay type: functional, cell-based;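 also: H4 neuroglioblastoma cells carrying an alpha-synuclein 5'UTR luciferase reporter; potency for inhibition of the luciferase signal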
Aminopeptidase N = biological target: T4, Aminopeptidase N (Plasmodium falciparum FcB1/Columbia, UniProt O96935); assay: P. falciparum M1AAP inhibitors, biochemical, fluorogenic H-Leu-NHMec substrate, 1536-well (AID 1445); design: species or system Plasmodium falciparum 3D7, 3D7
T4 sequence (O96935 whole entry): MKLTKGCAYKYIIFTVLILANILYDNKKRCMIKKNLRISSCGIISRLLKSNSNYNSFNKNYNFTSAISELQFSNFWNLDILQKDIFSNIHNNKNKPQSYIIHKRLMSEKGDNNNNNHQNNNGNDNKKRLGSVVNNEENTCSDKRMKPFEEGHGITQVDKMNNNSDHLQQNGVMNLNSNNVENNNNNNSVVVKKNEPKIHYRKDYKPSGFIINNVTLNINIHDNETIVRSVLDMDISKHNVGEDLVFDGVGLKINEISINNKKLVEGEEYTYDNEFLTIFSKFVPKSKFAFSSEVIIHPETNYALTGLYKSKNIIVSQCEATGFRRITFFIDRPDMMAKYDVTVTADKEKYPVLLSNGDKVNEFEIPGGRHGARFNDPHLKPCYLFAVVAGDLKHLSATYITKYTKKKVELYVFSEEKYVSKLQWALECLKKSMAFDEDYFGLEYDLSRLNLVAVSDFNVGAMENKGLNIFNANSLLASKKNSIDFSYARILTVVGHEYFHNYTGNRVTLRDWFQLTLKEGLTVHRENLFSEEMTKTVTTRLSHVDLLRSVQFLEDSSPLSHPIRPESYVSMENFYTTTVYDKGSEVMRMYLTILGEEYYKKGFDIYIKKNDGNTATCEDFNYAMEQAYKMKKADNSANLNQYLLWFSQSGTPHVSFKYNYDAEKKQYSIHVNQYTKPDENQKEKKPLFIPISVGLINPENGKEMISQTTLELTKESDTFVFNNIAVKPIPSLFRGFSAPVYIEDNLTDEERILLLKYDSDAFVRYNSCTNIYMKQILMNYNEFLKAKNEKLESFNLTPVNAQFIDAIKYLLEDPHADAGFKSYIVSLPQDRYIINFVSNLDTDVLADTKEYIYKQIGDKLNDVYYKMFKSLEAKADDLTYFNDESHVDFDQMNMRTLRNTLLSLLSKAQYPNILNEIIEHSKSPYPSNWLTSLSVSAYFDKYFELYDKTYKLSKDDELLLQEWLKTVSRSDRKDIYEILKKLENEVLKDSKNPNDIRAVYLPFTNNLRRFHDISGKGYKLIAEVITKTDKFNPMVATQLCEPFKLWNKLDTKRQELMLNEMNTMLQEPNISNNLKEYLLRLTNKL

[23] = inhibitors of intracellular T. cruzi replication, confirmation, NIH3T3 host cells, beta-gal luminescence (AID 2044); assay type: functional, cell-based;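 also: intracellular parasites grown in NIH/3T3 mouse fibroblasts as host cells; luminescent beta-galactosidase reporter signal from transgenic T. cruzi replicating inside host cells; inhibitors lower the luminescence signal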
[24] = cytotoxicity toward NIH3T3 fibroblasts, dose response, counter-screen, cell-based, ATP luminescence, mouse fibroblasts (AID 2010); assay type: functional;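 also: cells exposed to compound for about 90 hours before reading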
[25] = biological target: T5, Ubiquitin-conjugating enzyme E2 N (Homo sapiens, UniProt P61088); assay type: functional;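 also: Dose-response confirmation in a TR-FRET assay detecting UBC13-driven polyubiquitin chain formation, inhibition measured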
T5 sequence (P61088 whole entry): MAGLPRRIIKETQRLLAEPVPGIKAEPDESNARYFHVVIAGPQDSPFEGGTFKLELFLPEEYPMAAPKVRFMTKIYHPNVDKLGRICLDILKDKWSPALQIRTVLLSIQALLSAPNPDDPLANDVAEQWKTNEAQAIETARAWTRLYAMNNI

Chain of Voltage-dependent T-type calcium channel subunit alpha-1H (O95180 whole entry): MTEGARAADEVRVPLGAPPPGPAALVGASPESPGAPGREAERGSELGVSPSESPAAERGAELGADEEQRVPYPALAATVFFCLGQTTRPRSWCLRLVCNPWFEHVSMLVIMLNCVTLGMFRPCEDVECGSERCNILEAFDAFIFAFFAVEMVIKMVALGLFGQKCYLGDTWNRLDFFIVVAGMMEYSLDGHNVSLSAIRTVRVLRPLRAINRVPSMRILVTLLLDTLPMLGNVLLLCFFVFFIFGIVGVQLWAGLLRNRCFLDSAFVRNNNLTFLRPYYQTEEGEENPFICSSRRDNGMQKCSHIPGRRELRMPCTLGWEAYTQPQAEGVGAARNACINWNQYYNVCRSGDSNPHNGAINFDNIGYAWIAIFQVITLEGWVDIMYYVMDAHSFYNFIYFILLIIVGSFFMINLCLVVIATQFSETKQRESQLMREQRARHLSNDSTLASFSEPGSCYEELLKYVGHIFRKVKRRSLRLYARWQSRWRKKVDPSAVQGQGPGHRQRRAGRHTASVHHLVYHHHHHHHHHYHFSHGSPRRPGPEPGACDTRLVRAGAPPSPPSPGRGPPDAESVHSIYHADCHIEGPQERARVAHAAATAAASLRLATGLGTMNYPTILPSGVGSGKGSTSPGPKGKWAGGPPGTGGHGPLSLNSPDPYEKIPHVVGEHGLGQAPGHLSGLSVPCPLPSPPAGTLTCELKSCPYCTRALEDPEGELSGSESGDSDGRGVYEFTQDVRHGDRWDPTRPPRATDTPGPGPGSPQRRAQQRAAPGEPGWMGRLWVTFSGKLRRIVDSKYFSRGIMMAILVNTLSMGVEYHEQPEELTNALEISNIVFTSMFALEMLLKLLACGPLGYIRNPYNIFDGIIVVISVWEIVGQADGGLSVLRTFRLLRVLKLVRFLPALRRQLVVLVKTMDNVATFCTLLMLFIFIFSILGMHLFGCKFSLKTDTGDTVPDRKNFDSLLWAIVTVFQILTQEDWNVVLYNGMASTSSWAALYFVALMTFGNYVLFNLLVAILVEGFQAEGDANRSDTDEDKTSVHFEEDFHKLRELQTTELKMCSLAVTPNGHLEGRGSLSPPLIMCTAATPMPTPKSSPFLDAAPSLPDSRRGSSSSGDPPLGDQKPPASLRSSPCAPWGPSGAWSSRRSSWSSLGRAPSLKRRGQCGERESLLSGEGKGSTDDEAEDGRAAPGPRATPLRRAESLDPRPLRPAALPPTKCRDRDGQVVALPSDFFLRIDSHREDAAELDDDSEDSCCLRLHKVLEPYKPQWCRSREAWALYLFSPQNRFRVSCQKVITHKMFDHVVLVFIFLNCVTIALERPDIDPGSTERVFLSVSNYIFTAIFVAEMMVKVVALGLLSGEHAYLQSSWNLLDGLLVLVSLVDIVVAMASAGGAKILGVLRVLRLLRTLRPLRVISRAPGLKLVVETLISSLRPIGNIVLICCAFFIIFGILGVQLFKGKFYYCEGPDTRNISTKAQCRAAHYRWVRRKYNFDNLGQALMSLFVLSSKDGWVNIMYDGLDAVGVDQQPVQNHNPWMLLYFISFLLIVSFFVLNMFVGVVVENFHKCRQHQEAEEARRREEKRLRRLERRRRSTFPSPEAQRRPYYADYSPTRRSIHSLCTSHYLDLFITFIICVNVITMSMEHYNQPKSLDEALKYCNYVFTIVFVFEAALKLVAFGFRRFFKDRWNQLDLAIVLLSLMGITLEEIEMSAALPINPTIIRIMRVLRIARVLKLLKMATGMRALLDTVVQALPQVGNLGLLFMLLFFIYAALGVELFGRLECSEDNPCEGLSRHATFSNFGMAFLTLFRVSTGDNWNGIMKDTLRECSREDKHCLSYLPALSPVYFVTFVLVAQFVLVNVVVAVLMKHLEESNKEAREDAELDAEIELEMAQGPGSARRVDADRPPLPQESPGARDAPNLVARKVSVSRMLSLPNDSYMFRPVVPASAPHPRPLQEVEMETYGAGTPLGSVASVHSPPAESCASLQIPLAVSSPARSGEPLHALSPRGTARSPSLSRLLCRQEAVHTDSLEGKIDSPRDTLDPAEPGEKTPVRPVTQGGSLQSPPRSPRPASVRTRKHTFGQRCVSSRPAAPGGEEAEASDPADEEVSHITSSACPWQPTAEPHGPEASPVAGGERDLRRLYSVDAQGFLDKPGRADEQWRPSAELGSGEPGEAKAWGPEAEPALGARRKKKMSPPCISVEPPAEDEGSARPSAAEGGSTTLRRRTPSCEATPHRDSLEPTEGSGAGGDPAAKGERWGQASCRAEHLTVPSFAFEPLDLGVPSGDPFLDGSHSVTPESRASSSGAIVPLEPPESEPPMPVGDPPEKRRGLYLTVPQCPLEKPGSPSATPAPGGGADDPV
Chain of DNA dC->dU-editing enzyme APOBEC-3G (Q9HC16 whole entry): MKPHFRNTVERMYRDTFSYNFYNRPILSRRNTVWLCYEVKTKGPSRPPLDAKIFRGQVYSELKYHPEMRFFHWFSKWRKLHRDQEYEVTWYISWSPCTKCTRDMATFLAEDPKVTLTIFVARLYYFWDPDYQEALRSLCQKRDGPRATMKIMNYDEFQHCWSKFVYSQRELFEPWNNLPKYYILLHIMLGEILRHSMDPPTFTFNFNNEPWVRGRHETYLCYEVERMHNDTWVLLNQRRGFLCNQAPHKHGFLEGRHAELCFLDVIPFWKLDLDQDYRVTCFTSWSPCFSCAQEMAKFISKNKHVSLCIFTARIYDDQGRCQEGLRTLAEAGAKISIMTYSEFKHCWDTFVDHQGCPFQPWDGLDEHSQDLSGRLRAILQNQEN
Chain of DNA dC->dU-editing enzyme APOBEC-3A (P31941 whole entry): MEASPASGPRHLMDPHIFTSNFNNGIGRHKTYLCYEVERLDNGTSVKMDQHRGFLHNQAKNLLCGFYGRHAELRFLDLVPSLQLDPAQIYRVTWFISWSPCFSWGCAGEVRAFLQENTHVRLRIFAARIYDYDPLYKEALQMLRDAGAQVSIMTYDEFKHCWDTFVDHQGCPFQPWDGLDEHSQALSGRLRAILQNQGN
Chain of Luciferin 4-monooxygenase (P08659 whole entry): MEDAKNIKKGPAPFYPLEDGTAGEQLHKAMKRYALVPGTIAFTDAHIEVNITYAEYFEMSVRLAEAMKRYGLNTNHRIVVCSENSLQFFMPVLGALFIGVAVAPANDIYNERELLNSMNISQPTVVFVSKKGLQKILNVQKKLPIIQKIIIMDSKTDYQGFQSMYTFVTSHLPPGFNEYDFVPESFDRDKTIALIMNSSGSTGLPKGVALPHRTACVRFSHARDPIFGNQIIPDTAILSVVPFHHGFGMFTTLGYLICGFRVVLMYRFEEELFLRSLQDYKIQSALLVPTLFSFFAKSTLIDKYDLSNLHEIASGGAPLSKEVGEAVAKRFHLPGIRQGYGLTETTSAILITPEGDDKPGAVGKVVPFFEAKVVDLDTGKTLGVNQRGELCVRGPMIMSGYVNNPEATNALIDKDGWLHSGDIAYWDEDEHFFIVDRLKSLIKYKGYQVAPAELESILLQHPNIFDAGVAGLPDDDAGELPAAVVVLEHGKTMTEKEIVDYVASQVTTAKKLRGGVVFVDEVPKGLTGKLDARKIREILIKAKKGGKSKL
Chain of Melanin-concentrating hormone receptor 1 (Q99705 whole entry): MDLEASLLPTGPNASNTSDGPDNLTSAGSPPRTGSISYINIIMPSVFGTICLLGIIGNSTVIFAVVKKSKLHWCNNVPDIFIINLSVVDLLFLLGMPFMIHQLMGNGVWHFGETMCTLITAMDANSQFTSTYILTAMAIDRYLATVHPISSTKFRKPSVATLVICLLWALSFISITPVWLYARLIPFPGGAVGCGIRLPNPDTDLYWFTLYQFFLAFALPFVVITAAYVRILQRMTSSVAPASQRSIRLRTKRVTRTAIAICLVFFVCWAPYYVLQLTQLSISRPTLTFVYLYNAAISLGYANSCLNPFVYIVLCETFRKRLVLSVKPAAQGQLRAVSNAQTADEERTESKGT
Chain of Glyceraldehyde-3-phosphate dehydrogenase (P04406 whole entry): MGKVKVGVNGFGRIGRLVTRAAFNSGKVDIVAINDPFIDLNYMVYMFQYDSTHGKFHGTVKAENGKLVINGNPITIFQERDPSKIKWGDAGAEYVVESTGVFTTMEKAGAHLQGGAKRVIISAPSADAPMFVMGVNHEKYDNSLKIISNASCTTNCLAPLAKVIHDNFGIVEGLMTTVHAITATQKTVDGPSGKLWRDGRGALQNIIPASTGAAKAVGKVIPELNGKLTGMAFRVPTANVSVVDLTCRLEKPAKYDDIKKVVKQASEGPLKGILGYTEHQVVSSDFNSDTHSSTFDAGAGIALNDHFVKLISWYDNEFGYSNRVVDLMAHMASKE

Cc1ccc(S(=O)(=O)N2CCCC(c3nc(O)c4nnn(Cc5ccc6c(c5)OCCO6)c4n3)C2)cc1 (stereo unspecified)
CC50 [1]: 14.4 µM (active)
IC50 (cells [2]): 10.2 µM (active)

C=CCn1c(S)nnc1-c1cccc(S(=O)(=O)N(CC)CC)c1
IC50 [3]: > 100 µM (inactive)
IC50 [4]: 5.67 µM (active)

O=C(O)C1Nc2c(cccc2N2CCOCC2)C2C=CCC12 (stereo unspecified)
IC50 [5]: 3.87 µM (active)
IC50 [6]: > 100 µM (not active)
IC50 [7]: 44 µM (active)
IC50 [8]: 60.1 µM (active)

O=C1c2ccccc2C(=O)N1CCC(c1ccccc1)c1ccco1 (stereo unspecified)
EC50 [9]: > 50 µM (active)

O=C(c1ccco1)N1CCN(S(=O)(=O)c2ccc(S(=O)(=O)NC3CCCCC3)cc2)CC1
IC50 [10]: 23.8 µM (not active)

O=[N+]([O-])c1ccccc1S(=O)(=O)Nc1cccc(-c2ccc(N3CCCC3)nn2)c1
CC50 [1]: 40.6 µM (active)
IC50 (cells [2]): 5.15 µM (active)

Fc1ccc(-c2nnc(-c3ccc(Cl)cc3Cl)o2)cc1
CC50 [1]: 37 µM (active)
EC50 [11]: 2.56 µM (active)
EC50 (HT-1080): > 50 µM (not active)
EC50 (Troponin, cardiac muscle): > 71.5 µM (inactive)
IC50 (Protein skinhead-1): > 100 µM (inactive)

Cc1ccccc1NC(NC(=O)c1cccs1)C(Cl)(Cl)Cl (stereo unspecified)
EC50 [12]: 5.15 µM (active)

Cc1nc2cc(-c3ccccc3)nn2c(C)c1CCC(=O)N1CCN(c2ccccc2)CC1
EC50 [13]: 16.6 µM (active)
EC50 [14]: 13.6 µM (active)
EC50 [15]: 16.1 µM (active)
EC50 [12]: 4.59 µM (active)

CCOc1ccccc1NC(=O)C1CCCN(S(=O)(=O)c2ccc(OC)c(C)c2)C1 (stereo unspecified)
EC50 [12]: 13.6 µM (active)

COc1ccc(C(=O)Nc2nc3c(s2)CCCC3)cc1S(=O)(=O)N1CCCc2ccccc21
CC50 [1]: 3.66 µM (active)
IC50 (cells [2]): 5.95 µM (active)

CN1C(=O)C2(Nc3ccccc3-c3nc4ccccc4n32)c2ccccc21 (stereo unspecified)
EC50 [9]: > 50 µM (active)

CN(C)c1nnnn1-c1ccc(Oc2ccccc2)cc1
EC50 [9]: > 50 µM (active)

Cc1ccc(NC(=O)CSc2nc3ccccc3c3nc4ccccc4n23)cc1
EC50 [13]: 0.142 µM (active)
EC50 [16]: 0.518 µM (active)
EC50 (BJ [17]): 1.83 µM (inconclusive)
EC50 (cells [18]): 0.963 µM (active)
EC50 [14]: < 0.1 µM (active)
EC50 [15]: < 0.1 µM (active)
EC50 (BJ [19]): 24.2 µM (inconclusive)
EC50 (BJ [20]): 6.66 µM (inconclusive)
EC50 [21]: 0.784 µM (active)
EC50 [22]: 0.992 µM (active)

C/C(Cl)=C\Cn1c(O)c(/N=N/C(=N)S)c2ccccc21
IC50 (Aminopeptidase N): 63.5 µM (active)
EC50 [23]: 1.2 µM (active)
EC50 [24]: > 30 µM (not active)
IC50 [25]: > 20 µM (inactive)
